Laboratory results from patent US11629138B2, “Microbiocidal picolinamide derivatives” (Syngenta Participations AG, priority 2017, dated 2023).

Legend:
[1] = tested on: Mycosphaerella graminicola (Septoria tritici); experiment: Mycosphaerella graminicola (Septoria tritici) / liquid culture (Septoria blotch); type: cell-based; conditions: Zymoseptoria tritici; 200 ppm in the formulation; PDB broth, 24° C., photometric, 4 to 5 days after application; vs untreated control; read-out: disease control (inhibition of growth)
Procedure: (§1) Mycosphaerella graminicola (Septoria tritici)/Liquid Culture (Septoria Blotch) Conidia of the fungus from cryogenic storage are directly mixed into nutrient broth (PDB potato dextrose broth). After placing a (DMSO) solution of test compound into a microtiter plate (96-well format), the nutrient broth containing the fungal spores is added. The test plates are incubated at 24° C. and the inhibition of growth is determined photometrically 4 to 5 days after application.

[2] = tested on: Puccinia recondita f. so. tritici; experiment: Puccinia recondita f. sp. tritici / wheat / leaf disc preventative (brown rust); type: in vivo; conditions: foliar, 200 ppm in the formulation, wheat leaf segments cv. Kanzler, 7-9 days after application, vs untreated control, read-out: disease control
Procedure: Puccinia recondita f. so. tritici/Wheat/Leaf Disc Preventative (Brown Rust)
Wheat leaf segments cv. Kanzler are placed on agar in multiwell plates (24-well format) and sprayed with the formulated test compound diluted in water. The leaf disks are inoculated with a spore suspension of the fungus 1 day after application. The inoculated leaf segments are incubated at 19° C. and 75% rh under a light regime of 12 h light/12 h darkness in a climate cabinet and the activity of a compound is assessed as percent disease control compared to untreated when an appropriate level of disease damage appears in untreated check leaf segments (7-9 days after application).

[3] = tested on: Glomerella lagenarium (Colletotrichum lagenarium); experiment: Glomerella lagenarium (Colletotrichum lagenarium) / liquid culture (anthracnose); type: cell-based; conditions: Colletotrichum orbiculare; 200 ppm in the formulation; PDB broth, 24° C., photometric, 3 to 4 days after application; vs untreated control; read-out: disease control (inhibition of growth)
Procedure: as §1, with “Glomerella lagenarium (Colletotrichum lagenarium)/Liquid” for “Mycosphaerella graminicola (Septoria tritici)/Liquid”, “(Anthracnose)” for “(Septoria Blotch)”, “measured” for “determined”, “photometrically 3 to” for “photometrically”, “4” for “4 to 5”

[4] = tested on: Phaeosphaeria nodorum (Setoria nodorum); experiment: Phaeosphaeria nodorum (Septoria nodorum) / wheat / leaf disc preventative (glume blotch); type: in vivo; conditions: Parastagonospora nodorum, foliar, 200 ppm in the formulation, wheat leaf segments cv. Kanzler, 5-7 days after application, vs untreated control, read-out: disease control
Procedure: Phaeosphaeria nodorum (Setoria nodorum)/Wheat/Leaf Disc Preventative (Glume Blotch) Wheat leaf segments cv. Kanzler are placed on agar in a multiwell plate (24-well format) and sprayed with the formulated test compound diluted in water. The leaf disks are inoculated with a spore suspension of the fungus 2 days after application. The inoculated test leaf disks are incubated at 20° C. and 75% rh under a light regime of 12 h light/12 h darkness in a climate cabinet and the activity of a compound is assessed as percent disease control compared to untreated when an appropriate level of disease damage appears in untreated check leaf disks (5-7 days after application).

[5] = tested on: Monographella nivalis (Microdochium nivale); experiment: Monographella nivalis (Microdochium nivale) / liquid culture (foot rot cereals); type: cell-based; conditions: 200 ppm in the formulation, PDB broth, 24° C., photometric, 4-5 days after application, vs untreated control, read-out: disease control (inhibition of growth)
Procedure: as §1, with “Monographella nivalis (Microdochium nivale)/Liquid” for “Mycosphaerella graminicola (Septoria tritici)/Liquid”, “(Foot Rot Cereals)” for “(Septoria Blotch)”, “4-5” for “4 to 5”

[6] = tested on: Mycosphaerella arachidis (Cercospora arachidicola); experiment: Mycosphaerella arachidis (Cercospora arachidicola) / liquid culture (early leaf spot); type: cell-based; conditions: 200 ppm in the formulation, PDB broth, 24° C., photometric, 4-5 days after application, vs untreated control, read-out: disease control (inhibition of growth)
Procedure: as §1, with “arachidis (Cercospora arachidicola)/Liquid” for “graminicola (Septoria tritici)/Liquid”, “(Early Leaf Soot)” for “(Septoria Blotch)”, “4-5” for “4 to 5”

[7] = tested on: Botryotinia fuckeliana (Botrytis cinerea); experiment: Botryotinia fuckeliana (Botrytis cinerea) liquid culture (gray mould); type: cell-based; conditions: 200 ppm in the formulation, Vogels broth, 24° C., photometric, 3-4 days after application, vs untreated control, read-out: disease control (inhibition of growth)
Procedure: as §1, with “Botryotinia fuckeliana (Botrytis cinerea) Liquid” for “Mycosphaerella graminicola (Septoria tritici)/Liquid”, “(Gray Mould)” for “(Septoria Blotch)”, “(Vogels” for “(PDB potato dextrose”, “3-4” for “4 to 5”

COc1ccnc(C(=O)N[C@@H](C)C(=O)OC(C)C(C)n2ccc3c(Br)ccc(F)c32)c1O (stereo partly drawn) [I.ab.001, [2-(4-bromo-7-fluoro-indol-1-yl)-1-methyl-propyl] (2S)-2-[(3-hydroxy-4-methoxy-pyridine-2-carbonyl)amino]propanoate]
≥ 80%: inhibition at 200 ppm [1] | pest or weed control at 200 ppm [2] | inhibition at 200 ppm [3] | pest or weed control at 200 ppm [4] | inhibition at 200 ppm [5] | inhibition at 200 ppm [6] | inhibition at 200 ppm [7]

COc1ccnc(C(=O)N[C@@H](C)C(=O)OC(C)C(C)n2ncc3ccccc32)c1O (stereo partly drawn) [I.ae.001, (2-indazol-1-yl-1-methyl-propyl) (2S)-2-[(3-hydroxy-4-methoxy-pyridine-2-carbonyl)amino]propanoate]
≥ 80%: inhibition at 200 ppm [1] | pest or weed control at 200 ppm [2] | inhibition at 200 ppm [6]

COc1ccnc(C(=O)N[C@@H](C)C(=O)OC(C)C(C)n2cc(C#N)c(-c3cccc(Cl)c3Cl)c2)c1O (stereo partly drawn) [I.ag.001, [2-[3-cyano-4-(2,3-dichlorophenyl)pyrrol-1-yl]-1-methyl-propyl] (2S)-2-[(3-hydroxy-4-methoxy-pyridine-2-carbonyl)amino] propanoate]
≥ 80%: inhibition at 200 ppm [1] | inhibition at 200 ppm [3] | inhibition at 200 ppm [5] | inhibition at 200 ppm [7]

COc1ccnc(C(=O)N[C@@H](C)C(=O)OC(C)C(C)n2cc(C#N)c(-c3ccccc3Cl)c2)c1O (stereo partly drawn) [I.ah.001, [2-[3-(2-chlorophenyl)-4-cyano-pyrrol-1-yl]-1-methyl-propyl] (2S)-2-[(3-hydroxy-4-methoxy-pyridine-2-carbonyl)amino]propanoate]
≥ 80%: inhibition at 200 ppm [1] | inhibition at 200 ppm [3] | inhibition at 200 ppm [5] | inhibition at 200 ppm [6] | inhibition at 200 ppm [7]

COc1ccnc(C(=O)N[C@@H](C)C(=O)OC(C)C(C)c2sc3ccc(Cl)cc3c2C)c1O (stereo partly drawn) [I.at.001, [2-(5-chloro-3-methyl-benzothiophen-2-yl)-1-methyl-propyl] (2S)-2-[(3-hydroxy-4-methoxy-pyridine-2-carbonyl)amino]propanoate]
≥ 80%: inhibition at 200 ppm [1] | pest or weed control at 200 ppm [2] | inhibition at 200 ppm [3] | pest or weed control at 200 ppm [4] | inhibition at 200 ppm [5] | inhibition at 200 ppm [6]

COc1ccnc(C(=O)N[C@@H](C)C(=O)OC(C)C(C)n2ccc3cc(Cl)c(Cl)cc32)c1O (stereo partly drawn) [I.au.001, [2-(5,6-dichloroindol-1-yl)-1-methyl-propyl] (2S)-2-[(3-hydroxy-4-methoxy-pyridine-2-carbonyl)amino] propanoate]
≥ 80%: inhibition at 200 ppm [1] | pest or weed control at 200 ppm [2] | inhibition at 200 ppm [3] | inhibition at 200 ppm [5] | inhibition at 200 ppm [6] | inhibition at 200 ppm [7]

COc1ccnc(C(=O)N[C@@H](C)C(=O)OC(C)C(C)n2ccc3cc(F)c(Cl)cc32)c1O (stereo partly drawn) [I.av.001, [2-(6-chloro-5-fluoro-indol-1-yl)-1-methyl-propyl] (2S)-2-[(3-hydroxy-4-methoxy-pyridine-2-carbonyl)amino]propanoate]
≥ 80%: inhibition at 200 ppm [1] | pest or weed control at 200 ppm [2] | inhibition at 200 ppm [3] | inhibition at 200 ppm [6]

COc1ccnc(C(=O)N[C@@H](C)C(=O)OC(C)C(C)n2ccc3cc(F)c(Br)cc32)c1O (stereo partly drawn) [I.aw.001, [2-(6-bromo-5-fluoro-indol-1-yl)-1-methyl-propyl] (2S)-2-[(3-hydroxy-4-methoxy-pyridine-2-carbonyl)amino]propanoate]
≥ 80%: inhibition at 200 ppm [1] | pest or weed control at 200 ppm [2] | inhibition at 200 ppm [3] | inhibition at 200 ppm [6]

COc1ccnc(C(=O)N[C@@H](C)C(=O)OC(C)C(C)n2ccc3cc(F)cc(F)c32)c1O (stereo partly drawn) [I.ay.001, [2-(5,7-difluoroindol-1-yl)-1-methyl-propyl] (2S)-2-[(3-hydroxy-4-methoxy-pyridine-2-carbonyl)amino] propanoate]
≥ 80%: inhibition at 200 ppm [1] | pest or weed control at 200 ppm [2] | inhibition at 200 ppm [3] | pest or weed control at 200 ppm [4] | inhibition at 200 ppm [5] | inhibition at 200 ppm [6]

COc1ccnc(C(=O)N[C@@H](C)C(=O)OC(C)C(C)n2ccc3c(Cl)ccc(Cl)c32)c1OC(C)=O (stereo partly drawn) [I.bb.041, [2-(4,7-dichloroindol-1-yl)-1-methyl-propyl] (2S)-2-[(3-acetoxy-4-methoxy-pyridine-2-carbonyl)amino] propanoate]
≥ 80%: inhibition at 200 ppm [1] | pest or weed control at 200 ppm [2] | inhibition at 200 ppm [3] | pest or weed control at 200 ppm [4] | inhibition at 200 ppm [5] | inhibition at 200 ppm [6]

COc1ccnc(C(=O)N[C@@H](C)C(=O)OC(C)C(C)c2ccc3ccccc3n2)c1O (stereo partly drawn) [I.s.001, [1-methyl-2-(2-quinolyl)propyl] (2S)-2-[(3-hydroxy-4-methoxy-pyridine-2-carbonyl)amino]propanoate]
≥ 80%: inhibition at 200 ppm [1] | pest or weed control at 200 ppm [2] | inhibition at 200 ppm [3] | inhibition at 200 ppm [5] | inhibition at 200 ppm [6] | inhibition at 200 ppm [7]

COc1ccnc(C(=O)N[C@@H](C)C(=O)OC(C)C(C)n2ccc3ccc(F)cc32)c1O (stereo partly drawn) [I.v.001, [2-(6-fluoroindol-1-yl)-1-methyl-propyl] (2S)-2-[(3-hydroxy-4-methoxy-pyridine-2-carbonyl)amino]propanoate]
≥ 80%: inhibition at 200 ppm [1] | pest or weed control at 200 ppm [2] | inhibition at 200 ppm [3] | inhibition at 200 ppm [5] | inhibition at 200 ppm [6] | inhibition at 200 ppm [7]

COc1ccnc(C(=O)N[C@@H](C)C(=O)OC(C)C(C)n2ccc3cc(F)ccc32)c1O (stereo partly drawn) [I.w.001, [2-(5-fluoroindol-1-yl)-1-methyl-propyl] (2S)-2-[(3-hydroxy-4-methoxy-pyridine-2-carbonyl)amino]propanoate]
≥ 80%: inhibition at 200 ppm [1] | pest or weed control at 200 ppm [2] | inhibition at 200 ppm [3] | inhibition at 200 ppm [5] | inhibition at 200 ppm [6] | inhibition at 200 ppm [7]

COc1ccnc(C(=O)N[C@@H](C)C(=O)OC(C)C(C)n2ccc3ccc(Cl)cc32)c1O (stereo partly drawn) [I.x.001, [2-(6-chloroindol-1-yl)-1-methyl-propyl] (2S)-2-[(3-hydroxy-4-methoxy-pyridine-2-carbonyl)amino]propanoate]
≥ 80%: inhibition at 200 ppm [1] | pest or weed control at 200 ppm [2] | inhibition at 200 ppm [3] | inhibition at 200 ppm [6] | inhibition at 200 ppm [7]

COc1ccnc(C(=O)N[C@@H](C)C(=O)OC(C)C(C)n2ccc3ccc(C(F)(F)F)cc32)c1O (stereo partly drawn) [I.z.001, [1-methyl-2-[6-(trifluoromethyl)indol-1-yl]propyl] (2S)-2-[(3-hydroxy-4-methoxy-pyridine-2-carbonyl)amino]propanoate]
≥ 80%: inhibition at 200 ppm [1] | pest or weed control at 200 ppm [2] | inhibition at 200 ppm [3] | pest or weed control at 200 ppm [4] | inhibition at 200 ppm [5] | inhibition at 200 ppm [6] | inhibition at 200 ppm [7]
